Read-outs that look alike come from different tables or passages of the source.

Data on 18 compounds can be found in patent publication US20240109865A1, “INDAZOLE COMPOUNDS AS KINASE INHIBITORS” (TYRA BIOSCIENCES, INC., priority 2020, published 2024).

Common to all, as to assay: Kinase assay, binding constants (Kd), kinase-tagged T7 phage, qPCR
(In general: Quantitative PCR measures a nucleic acid by following its amplification.)

Assay [1] has as its target FGFR3 (V555M) (Homo sapiens (Human), UniProt P22607, V555M). To be noted: V555M mutant. In a few lines:
(§1)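 Using T7 phage lysates from BL21-derived E. coli, compounds at 0.9% final DMSO competed for kinase binding to ligand-bearing magnetic beads. After elution, qPCR measured remaining kinase, and Kds were fitted by non-linear least squares with the Hill slope fixed at −1.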

The target of assay [2] is FGFR4 (Homo sapiens (Human), UniProt P22455). In a few lines:
as §1

Assay [3] addresses FGFR1 (Homo sapiens (Human), UniProt P11362). An outline of the steps: as §1
Assay [4] addresses FGFR3 (Homo sapiens (Human), UniProt P22607). An outline of the steps: as §1
The target of assay [5] is FGFR2 (Homo sapiens (Human), UniProt P21802). An outline of the steps: as §1
Sequence of FGFR2 (P21802 22-821): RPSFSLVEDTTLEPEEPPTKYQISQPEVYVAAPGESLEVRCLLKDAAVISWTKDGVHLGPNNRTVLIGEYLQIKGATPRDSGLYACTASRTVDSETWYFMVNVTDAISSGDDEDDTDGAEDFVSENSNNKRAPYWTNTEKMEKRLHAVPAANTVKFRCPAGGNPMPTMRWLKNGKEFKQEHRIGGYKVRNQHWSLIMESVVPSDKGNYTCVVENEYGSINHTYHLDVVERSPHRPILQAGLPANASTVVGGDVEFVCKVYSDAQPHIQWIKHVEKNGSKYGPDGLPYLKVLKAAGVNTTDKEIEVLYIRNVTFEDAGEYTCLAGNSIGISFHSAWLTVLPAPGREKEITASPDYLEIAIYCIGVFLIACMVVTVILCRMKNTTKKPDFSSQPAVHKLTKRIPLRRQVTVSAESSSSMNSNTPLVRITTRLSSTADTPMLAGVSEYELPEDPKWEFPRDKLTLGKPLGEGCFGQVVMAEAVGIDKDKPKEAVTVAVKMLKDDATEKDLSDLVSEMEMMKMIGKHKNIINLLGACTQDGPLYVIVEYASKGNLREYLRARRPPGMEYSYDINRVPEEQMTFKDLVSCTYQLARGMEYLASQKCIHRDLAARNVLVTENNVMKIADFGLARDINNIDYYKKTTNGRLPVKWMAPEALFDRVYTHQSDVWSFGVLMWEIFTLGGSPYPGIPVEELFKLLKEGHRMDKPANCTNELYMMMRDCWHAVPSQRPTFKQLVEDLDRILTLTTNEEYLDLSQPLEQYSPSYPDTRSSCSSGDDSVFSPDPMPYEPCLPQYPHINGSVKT

Sequence of FGFR1 (P11362 22-822): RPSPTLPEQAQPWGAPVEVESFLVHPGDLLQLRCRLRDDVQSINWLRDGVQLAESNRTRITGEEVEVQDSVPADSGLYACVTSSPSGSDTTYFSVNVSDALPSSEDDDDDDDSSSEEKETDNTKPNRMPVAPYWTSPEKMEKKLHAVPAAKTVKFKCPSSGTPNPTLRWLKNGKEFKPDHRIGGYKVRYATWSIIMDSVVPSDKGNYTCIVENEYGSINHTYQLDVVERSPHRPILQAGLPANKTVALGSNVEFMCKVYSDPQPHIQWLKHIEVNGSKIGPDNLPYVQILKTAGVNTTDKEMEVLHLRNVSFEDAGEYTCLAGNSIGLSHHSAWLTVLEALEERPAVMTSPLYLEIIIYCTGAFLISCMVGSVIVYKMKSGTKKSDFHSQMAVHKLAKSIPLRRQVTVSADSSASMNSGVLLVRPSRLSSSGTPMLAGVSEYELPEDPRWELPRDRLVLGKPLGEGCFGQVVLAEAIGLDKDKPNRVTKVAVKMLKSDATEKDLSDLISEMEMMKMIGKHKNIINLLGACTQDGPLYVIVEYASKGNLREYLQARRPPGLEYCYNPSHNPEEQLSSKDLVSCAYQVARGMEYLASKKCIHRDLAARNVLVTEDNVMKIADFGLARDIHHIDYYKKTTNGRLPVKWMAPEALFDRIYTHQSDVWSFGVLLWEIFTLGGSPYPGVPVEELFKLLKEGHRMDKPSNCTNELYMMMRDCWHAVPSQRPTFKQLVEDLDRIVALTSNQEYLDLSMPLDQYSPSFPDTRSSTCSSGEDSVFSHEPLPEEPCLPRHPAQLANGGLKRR
Sequence of FGFR3 (V555M) (P22607 23-806 V555M): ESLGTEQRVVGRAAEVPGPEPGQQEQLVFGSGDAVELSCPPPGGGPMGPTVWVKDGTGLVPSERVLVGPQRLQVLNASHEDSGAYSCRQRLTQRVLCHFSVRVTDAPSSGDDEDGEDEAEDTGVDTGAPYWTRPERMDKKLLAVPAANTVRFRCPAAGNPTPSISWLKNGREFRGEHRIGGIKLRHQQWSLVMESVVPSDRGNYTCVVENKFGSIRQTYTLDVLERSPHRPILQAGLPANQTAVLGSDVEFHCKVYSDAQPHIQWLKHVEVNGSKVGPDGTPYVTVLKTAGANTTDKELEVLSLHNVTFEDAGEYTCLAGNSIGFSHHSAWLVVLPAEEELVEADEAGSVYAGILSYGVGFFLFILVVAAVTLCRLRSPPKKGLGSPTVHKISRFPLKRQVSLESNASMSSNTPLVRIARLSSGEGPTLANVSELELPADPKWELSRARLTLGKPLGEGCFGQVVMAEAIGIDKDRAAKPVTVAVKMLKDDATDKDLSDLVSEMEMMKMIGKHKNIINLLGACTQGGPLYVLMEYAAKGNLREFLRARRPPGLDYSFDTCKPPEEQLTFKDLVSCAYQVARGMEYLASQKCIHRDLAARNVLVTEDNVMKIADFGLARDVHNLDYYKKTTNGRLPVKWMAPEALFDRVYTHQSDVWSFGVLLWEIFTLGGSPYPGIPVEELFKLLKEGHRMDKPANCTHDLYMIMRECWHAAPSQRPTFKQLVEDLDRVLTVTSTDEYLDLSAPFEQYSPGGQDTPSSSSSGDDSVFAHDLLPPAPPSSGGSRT
Sequence of FGFR4 (P22455 22-802): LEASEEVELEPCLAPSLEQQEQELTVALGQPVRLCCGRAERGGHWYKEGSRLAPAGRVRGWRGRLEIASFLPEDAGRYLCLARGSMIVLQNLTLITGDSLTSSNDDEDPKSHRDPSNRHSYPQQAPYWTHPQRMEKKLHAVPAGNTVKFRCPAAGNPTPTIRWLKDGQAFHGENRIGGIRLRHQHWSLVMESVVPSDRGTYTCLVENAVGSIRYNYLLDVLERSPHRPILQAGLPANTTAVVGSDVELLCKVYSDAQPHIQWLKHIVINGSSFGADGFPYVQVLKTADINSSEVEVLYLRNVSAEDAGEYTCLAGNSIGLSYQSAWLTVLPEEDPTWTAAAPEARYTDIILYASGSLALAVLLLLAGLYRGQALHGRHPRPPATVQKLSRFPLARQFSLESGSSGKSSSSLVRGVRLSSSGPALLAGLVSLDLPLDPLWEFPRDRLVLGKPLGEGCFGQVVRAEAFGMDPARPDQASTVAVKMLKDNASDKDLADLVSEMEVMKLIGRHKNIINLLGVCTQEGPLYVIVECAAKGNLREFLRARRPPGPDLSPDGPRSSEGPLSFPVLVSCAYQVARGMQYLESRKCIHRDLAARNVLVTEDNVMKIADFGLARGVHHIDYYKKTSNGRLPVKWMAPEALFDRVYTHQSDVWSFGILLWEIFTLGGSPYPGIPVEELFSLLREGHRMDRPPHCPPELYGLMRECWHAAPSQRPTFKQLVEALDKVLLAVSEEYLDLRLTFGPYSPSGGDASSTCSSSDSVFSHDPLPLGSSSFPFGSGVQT
Sequence of FGFR3 (P22607 23-806): as the sequence (P22607 23-806 V555M) above, with M533V counted along it

Turning to `COc1cc2[nH]nc(-c3cnc(N4CC5(C4)CN(S(C)(=O)=O)C5)c(C#N)c3)c2cc1O[C@H](C)c1c(Cl)cnc(C)c1Cl` [Example 341, 5-[5-[(1R)-1-(3,5-dichloro-2-methyl-4-pyridyl)ethoxy]-6-methoxy-1H-indazol-3-yl]-2-(2-methylsulfonyl-2,6-diazaspiro[3.3]heptan-6-yl)pyridine-3-carbonitrile], the Kd was in the range of 1 to 20 nM in assay [1]; 1 to 20 nM in assay [2]; 20 to 100 nM in assay [3]; 1 to 20 nM in assay [4]; 20 to 100 nM in assay [5].

Take `COc1cc2[nH]nc(-c3cnc(N4CC5(C4)CN(S(C)(=O)=O)C5)c(C#N)c3)c2cc1O[C@H](C)c1c(Cl)cncc1Cl` [Example 342, 5-[5-[(1R)-1-(3,5-dichloro-4-pyridyl)ethoxy]-6-methoxy-1H-indazol-3-yl]-2-(2-methylsulfonyl-2,6-diazaspiro[3.3]heptan-6-yl)pyridine-3-carbonitrile]: the equilibrium dissociation constant (Kd) in assay [1] lay within 1 to 20 nM; in assay [2], 1 to 20 nM; in assay [3], 20 to 100 nM; in assay [4], 1 to 20 nM; in assay [5], 1 to 20 nM.

`C[C@@H](Oc1ccc2[nH]nc(-c3cnc(N4CC5(CCS(=O)(=O)C5)C4)c(C#N)c3)c2c1)c1c(Cl)cncc1Cl` [Example 343, (R)-5-(5-(1-(3,5-dichloropyridin-4-yl)ethoxy)-1H-indazol-3-yl)-2-(6,6-dioxido-6-thia-2-azaspiro[3.4]octan-2-yl)nicotinonitrile]: the Kd lay within 1 to 20 nM in assay [1]; 1 to 20 nM in assay [2]; 20 to 100 nM in assay [3]; 1 to 20 nM in assay [4]; 20 to 100 nM in assay [5].

`COc1cc(-c2n[nH]c3ccc(O[C@H](C)c4c(Cl)cncc4Cl)cc23)cnc1N1CC2(C1)CN(S(C)(=O)=O)C2` [Example 344, (R)-5-(1-(3,5-dichloropyridin-4-yl)ethoxy)-3-(5-methoxy-6-(6-(methylsulfonyl)-2,6-diazaspiro[3.3]heptan-2-yl)pyridin-3-yl)-1H-indazole]: the Kd in assay [1] is 20 to 100 nM; in assay [2], 1 to 20 nM; in assay [3] it was over 300 nM; in assay [4] it was 100 to 300 nM; in assay [5] it was over 300 nM.

In the case of `C[C@@H](Oc1ccc2[nH]nc(-c3cnc(N4CC(C(F)F)C4)c(C#N)c3)c2c1)c1c(Cl)cncc1Cl` [Example 345, (R)-5-(5-(1-(3,5-dichloropyridin-4-yl)ethoxy)-1H-indazol-3-yl)-2-(3-(difluoromethyl)azetidin-1-yl)nicotinonitrile], the Kd in assay [1] was 20 to 100 nM; in assay [2] it was 1 to 20 nM; in assay [3], over 300 nM; in assay [4], 20 to 100 nM; in assay [5] it was over 300 nM.

As for `COc1cc2[nH]nc(-c3cnc(N4CC5(CCCS(=O)(=O)C5)C4)c(C#N)c3)c2cc1O[C@H](C)c1c(Cl)cncc1Cl` [Example 346, (R)-5-(5-(1-(3,5-dichloropyridin-4-yl)ethoxy)-6-methoxy-1H-indazol-3-yl)-2-(6,6-dioxido-6-thia-2-azaspiro[3.5]nonan-2-yl)nicotinonitrile], the Kd in assay [1], in assay [2], in assay [3], in assay [4] and in assay [5] was 1 to 20 nM throughout.

For the compound `C[C@@H](Oc1ccc2[nH]nc(-c3cnc(N4CC(C(F)(F)F)C4)c(C#N)c3)c2c1)c1c(Cl)cncc1Cl` [Example 347, (R)-5-(5-(1-(3,5-dichloropyridin-4-yl)ethoxy)-1H-indazol-3-yl)-2-(3-(trifluoromethyl)azetidin-1-yl)nicotinonitrile], the Kd was 20 to 100 nM in assay [1]; 1 to 20 nM in assay [2]; over 300 nM in assay [3]; 20 to 100 nM in assay [4]; over 300 nM in assay [5].

As for `C[C@@H](Oc1ccc2[nH]nc(-c3cnc(N4CC(C#N)C4)c(C#N)c3)c2c1)c1c(Cl)cncc1Cl` [Example 348, (R)-2-(3-cyanoazetidin-1-yl)-5-(5-(1-(3,5-dichloropyridin-4-yl)ethoxy)-1H-indazol-3-yl)nicotinonitrile], the Kd in assay [1] is 1 to 20 nM; in assay [2], 1 to 20 nM; in assay [3], 20 to 100 nM; in assay [4], 1 to 20 nM; in assay [5], over 300 nM.

As to `Cc1ncc(Cl)c([C@@H](C)Oc2ccc3[nH]nc(-c4cnc(N5CC6(CCCS(=O)(=O)C6)C5)c(C#N)c4)c3c2)c1Cl` [Example 349, 5-[5-[(1R)-1-(3,5-dichloro-2-methyl-4-pyridyl)ethoxy]-1H-indazol-3-yl]-2-(6,6-dioxo-6λ^6-thia-2-azaspiro[3.5]nonan-2-yl)pyridine-3-carbonitrile], the Kd lay within 1 to 20 nM in assay [1]; 1 to 20 nM in assay [2]; 100 to 300 nM in assay [3]; 20 to 100 nM in assay [4]; 100 to 300 nM in assay [5].

As for `Cc1ncc(Cl)c([C@@H](C)Oc2ccc3[nH]nc(-c4cnc(N5CC6(CCCN(S(C)(=O)=O)C6)C5)c(C#N)c4)c3c2)c1Cl` [Example 350, 5-[5-[(1R)-1-(3,5-dichloro-2-methyl-4-pyridyl)ethoxy]-1H-indazol-3-yl]-2-(8-methylsulfonyl-2,8-diazaspiro[3.5]nonan-2-yl)pyridine-3-carbonitrile], the Kd is 20 to 100 nM in assay [1]; 1 to 20 nM in assay [2]; over 300 nM in assay [3]; 90 nM in assay [4] (given as a number); 100 to 300 nM in assay [5].

Turning to `C[C@@H](Oc1ccc2[nH]nc(-c3cnc(N4CC[C@@H]4CO)c(C#N)c3)c2c1)c1c(Cl)cncc1Cl` [Example 351, 5-(5-((R)-1-(3,5-dichloropyridin-4-yl)ethoxy)-1H-indazol-3-yl)-2-((R)-2-(hydroxymethyl)azetidin-1-yl)nicotinonitrile], the Kd in assay [1] lay within 1 to 20 nM; in assay [2] it was 1 to 20 nM; in assay [3], 20 to 100 nM; in assay [4], 1 to 20 nM; in assay [5] it was 100 to 300 nM.

`Cc1cc2[nH]nc(-c3cnc(N4CC5(C4)CN(S(C)(=O)=O)C5)c(C#N)c3)c2cc1O[C@H](C)c1c(Cl)cncc1Cl` [Example 352, (R)-5-(5-(1-(3,5-dichloropyridin-4-yl)ethoxy)-6-methyl-1H-indazol-3-yl)-2-(6-(methylsulfonyl)-2,6-diazaspiro[3.3]heptan-2-yl)nicotinonitrile]: the Kd lay within 1 to 20 nM in assay [1]; 1 to 20 nM in assay [2]; 20 to 100 nM in assay [3]; 1 to 20 nM in assay [4]; 100 to 300 nM in assay [5].

Regarding `C[C@@H](Oc1ccc2[nH]nc(-c3cnc(N4CC(F)(F)C4)c(C#N)c3)c2c1)c1c(Cl)cncc1Cl` [Example 353, (R)-5-(5-(1-(3,5-dichloropyridin-4-yl)ethoxy)-1H-indazol-3-yl)-2-(3,3-difluoroazetidin-1-yl)nicotinonitrile], the Kd in assay [1] was 20 to 100 nM; in assay [2], 1 to 20 nM; in assay [3], over 300 nM; in assay [4], 20 to 100 nM; in assay [5] it was over 300 nM.

For the compound `C[C@@H](Oc1ccc2[nH]nc(-c3cnc(N4CC[C@H]4CO)c(C#N)c3)c2c1)c1c(Cl)cncc1Cl` [Example 354, 5-(5-((R)-1-(3,5-dichloropyridin-4-yl)ethoxy)-1H-indazol-3-yl)-2-((S)-2-(hydroxymethyl)azetidin-1-yl)nicotinonitrile], the Kd in assay [1] lay within 1 to 20 nM; in assay [2] it was 1 to 20 nM; in assay [3] it was 20 to 100 nM; in assay [4], 1 to 20 nM; in assay [5], 20 to 100 nM.

As to `C[C@@H](Oc1cc2c(-c3cnc(N4CC5(C4)CN(S(C)(=O)=O)C5)c(C#N)c3)n[nH]c2cc1F)c1c(Cl)cncc1Cl` [Example 355, (R)-5-(5-(1-(3,5-dichloropyridin-4-yl)ethoxy)-6-fluoro-1H-indazol-3-yl)-2-(6-(methylsulfonyl)-2,6-diazaspiro[3.3]heptan-2-yl)nicotinonitrile], the Kd in assay [1] was 1 to 20 nM; in assay [2], 1 to 20 nM; in assay [3], 1 to 20 nM; in assay [4] it was 1 to 20 nM; in assay [5], 20 to 100 nM.

In the case of `C[C@@H](Oc1ccc2[nH]nc(-c3cnc(N4CC5(C4)CN(S(C)(=O)=O)C5)c(CN(C)C)c3)c2c1)c1c(Cl)cncc1Cl` [Example 356, (R)-1-(5-(5-(1-(3,5-dichloropyridin-4-yl)ethoxy)-1H-indazol-3-yl)-2-(6-(methylsulfonyl)-2,6-diazaspiro[3.3]heptan-2-yl)pyridin-3-yl)-N,N-dimethylmethanamine], the Kd is 100 to 300 nM in assay [1]; 20 to 100 nM in assay [2]; over 300 nM in assay [3]; over 300 nM in assay [4]; over 300 nM in assay [5].

Take `COc1cc2[nH]nc(-c3cnc(N4CC5(C4)CN(S(C)(=O)=O)C5)c(CN(C)C)c3)c2cc1O[C@H](C)c1c(Cl)cncc1Cl` [Example 357, (R)-1-(5-(5-(1-(3,5-dichloropyridin-4-yl)ethoxy)-6-methoxy-1H-indazol-3-yl)-2-(6-(methylsulfonyl)-2,6-diazaspiro[3.3]heptan-2-yl)pyridin-3-yl)-N,N-dimethylmethanamine]: the Kd is 20 to 100 nM in assay [1]; 1 to 20 nM in assay [2]; over 300 nM in assay [3]; 100 to 300 nM in assay [4]; over 300 nM in assay [5].

As for `C[C@@H](Oc1ccc2[nH]nc(-c3cnc(N4CC(C)(N)C4)c(C#N)c3)c2c1)c1c(Cl)cncc1Cl` [Example 358, (R)-2-(3-amino-3-methylazetidin-1-yl)-5-(5-(1-(3,5-dichloropyridin-4-yl)ethoxy)-1H-indazol-3-yl)nicotinonitrile], the Kd in assay [1] is 1 to 20 nM; in assay [2] it was 1 to 20 nM; in assay [3], 20 to 100 nM; in assay [4], 1 to 20 nM; in assay [5] it was 100 to 300 nM.

Broadly, the Kd is the constant that tells how readily two partners part at equilibrium. Read a high Kd as a looser complex.
